# Measurements reported in patent US20210380535A1, “CO-CRYSTALS COMPRISING EPICATECHIN AND A CARBOXY-N-HETEROCYCLIC CO-CRYSTAL FORMER” (Epirium Bio Inc., priority 2018, published 2021).
# Like-named read-outs stand apart in the source and are kept apart here.
# Tests used:
# [1] = Pharmacokinetics study of (+)/(−) epicatechin and their trigonelline (1:1) co-crystals, oral (Example 3); type: in vivo; conditions: rat, 10 mg/kg, male SD rats, 10 mpk equivalent of parent drug, vehicle CMC and Tween 80, plasma; for half-life: read-out: T½ elimination (converted)
# Description: (§1) Co-crystals of the present invention were administered orally (PO) at a dose of 10 mpk equivalent of parent drugs in male SD rats. The PK results of the compound were compared with exposure of parent drugs. […] Blood samples were centrifuged at 10,000 rpm for 5 min. at 4° C. to obtain the plasma, which were aspirated into separate labelled tubes and stored at −80° C. Extraction solvent was added to plasma, was vortexed and shaken on shaker for 10 minutes, centrifuged at 10,000 rpm for 10 minutes at 4° C. Supernatant was kept for analysis.
# [2] = average; male SD rats, PO, 14 mpk of Compound 109 (equivalent to 10 mpk epicatechin), vehicle 0.5% CMC
# Description: A pharmacokinetics study was carried out to evaluate the plasma exposure of D-proline co-crystals of (+) epicatechin (Compound 109). Co-crystals were administered orally (PO) at a dose of 14 mpk of Compound 109, which is equivalent to 10 mpk of epicatechin. The dosing vehicle that was used in this study was 0.5% CMC. After oral dosing, blood was collected by serial bleeding at different time points in heparinised tubes. Blood samples were centrifuged at 10,000 rpm for 5 min. at 4° C. to obtain the plasma, which were aspirated into separate labelled tubes and stored at −80° C. Extraction solvent was added to plasma, was vortexed and shaken on a shaker for 10 minutes, and then centrifuged at 10,000 rpm for 10 minutes at 4° C. Supernatant was kept for analysis. Acetonitrile and plasma calibration curves were generated and percentage of drug recovery from plasma determined. Quantitative analysis was done by liquid chromatography tandem mass spectrometer (API3000 LC-MS/MS). PK parameters were calculated using Graph Pad PRISM version 5.04 and the results are depicted in Table 7.
# [3] = Pharmacokinetics study of (+) epicatechin (SPR590) and its trigonelline (1:1) co-crystal (SPR515), oral (Example 4); type: in vivo; conditions: rat, plasma, male SD rats, CMC and Tween 80
# Description: as §1, with “mpk” for “mpk equivalent of parent drugs”, “rats for the control (+) epicatechin group and 10 mpk of SPR 515 which is equivalent to 6.25 mpk of epicatechin.” for “rats.”
# [4] = PO, dose 10 mpk (MW adjusted (+)-epicatechin dose: SPR590 10 mpk, SPR515 6.25 mpk)
AUC [1] [µM·h],Cmax [1] [nM],Tmax [1] [min],half-life [1] [min],AUC [2] [nM·h],Cmax [2] [nM],Tmax [2] [min],T½ elimination [2] [h],"AUC [3, 4] [µM·h]","Cmax [3, 4] [nM]","concentration at 0.16 h ([3]; time point 0.16 h, PO 10 mpk (SPR515: equivalent to 6.25 mpk epicatechin), read-out: Plasma level) [nM]","concentration at 0.5 h ([3]; time point 0.5 h, PO 10 mpk (SPR515: equivalent to 6.25 mpk epicatechin), read-out: Plasma level) [nM]","concentration at 1 h ([3]; time point 1 h, PO 10 mpk (SPR515: equivalent to 6.25 mpk epicatechin), read-out: Plasma level) [nM]","concentration at 2 h ([3]; time point 2 h, PO 10 mpk (SPR515: equivalent to 6.25 mpk epicatechin), read-out: Plasma level) [nM]","concentration at 4 h ([3]; time point 4 h, PO 10 mpk (SPR515: equivalent to 6.25 mpk epicatechin), read-out: Plasma level) [nM]","concentration at 8 h ([3]; time point 8 h, PO 10 mpk (SPR515: equivalent to 6.25 mpk epicatechin), read-out: Plasma level) [nM]",Structure (SMILES)
0.678,386,18,113,,,,,,,,,,,,,"Oc1cc(O)c2c(c1)O[C@H](c1ccc(O)c(O)c1)[C@H](O)C2 [Compound 107, (−) epicatechin]"
,,,,1905.33,778,45,1.71,,,,,,,,,"O=C(O)[C@H]1CCCN1.Oc1cc(O)c2c(c1)O[C@@H](c1ccc(O)c(O)c1)[C@@H](O)C2 [Compound 109, (+) Epicatechin_(D)-Proline (1:1) Co-Crystals]"
0.579,333,60,49.8,,,,,0.678,386,236,338,262,152,24.1,0,"Oc1cc(O)c2c(c1)O[C@@H](c1ccc(O)c(O)c1)[C@@H](O)C2 [Compound 108, (+) epicatechin]"
